In patent US20170065566A1, “PHARMACEUTICAL COMBINATIONS COMPRISING ANTIBACTERIAL AGENTS” (WOCKHARDT LIMITED, priority 2014, published 2017):
Counter-ions that a name gives are not always drawn.

Tested on: E. coli 7MP strain producing CMY type, SHV, TEM beta-lactamase enzymes
Experiment: Time kill study (viable bacterial count)
Assay type: cell-based
Conditions: for Effect on bacterial count of E. coli throughout the duration of the study (in words): alone or in combination; for Bacterial count (Log10 CFU/ml) 0 hour / Bacterial count (Log10 CFU/ml) 2 hour / Bacterial count (Log10 CFU/ml) 4 hour / Bacterial count (Log10 CFU/ml) 6 hour / Bacterial count (Log10 CFU/ml) 8 hour: time kill
Protocol: The synergistic killing effect of the combinations according to invention was studied by performing time kill studies. In a typical time kill study, the freshly grown cultures were diluted to the required cell density (initial starting inoculum) in Cation adjusted Muller Hinton broth medium (BD, USA). The antibacterial agents (either alone or in combination) at the required concentrations were added into the culture-containing medium. The samples were incubated under shaking condition (120 rpm) at 37° C. Enumeration of viable bacterial count was done every 2 hour by diluting in normal saline and plating on to the Tryptic Soya Agar plates (BD, USA). The plates were incubated for 24 hours to arrive at the viable bacterial count. […] In general, the decrease of 1 Log CFU/ml, corresponds to 90% killing of bacteria. Similarly, 2 Log CFU/ml reductions indicates to 99% killing of bacteria and 3 Log CFU/ml reductions is equal to 99.9% killing of bacteria.
The assay without any antibacterial agent was taken as control.

[1] = each active ingredient at 4 mcg/ml

SMILES	Effect on bacterial count of E. coli throughout the duration of the study (in words) [1]	Bacterial count (Log10 CFU/ml) 0 hour [1]	Bacterial count (Log10 CFU/ml) 2 hour [1]	Bacterial count (Log10 CFU/ml) 4 hour [1]	Bacterial count (Log10 CFU/ml) 6 hour [1]	Bacterial count (Log10 CFU/ml) 8 hour [1]	Bacterial count (Log10 CFU/ml) 0 hour (2 mcg/ml)	Bacterial count (Log10 CFU/ml) 2 hour (2 mcg/ml)	Bacterial count (Log10 CFU/ml) 4 hour (2 mcg/ml)	Bacterial count (Log10 CFU/ml) 6 hour (2 mcg/ml)	Bacterial count (Log10 CFU/ml) 8 hour (2 mcg/ml)
CO/N=C(\C(=O)N[C@@H]1C(=O)N2C(C(=O)[O-])=C(C[N+]3(C)CCCC3)CS[C@H]12)c1csc(N)n1 [Cefepime, cefepime]	not effective in decreasing the bacterial count	7.51 Log10 CFU/ml	8.47 Log10 CFU/ml	9.19 Log10 CFU/ml	9.20 Log10 CFU/ml	9.30 Log10 CFU/ml					
CO/N=C(\C(=O)N[C@@H]1C(=O)N2C(C(=O)[O-])=C(C[n+]3cccc4c3CCC4)CS[C@H]12)c1csc(N)n1 [Cefpirome, cefpirome]	not effective in decreasing the bacterial count	7.51 Log10 CFU/ml	8.87 Log10 CFU/ml	9.27 Log10 CFU/ml	9.20 Log10 CFU/ml	9.25 Log10 CFU/ml					
C[C@@H](O)[C@H]1C(=O)N2C(C(=O)O)=C(SCCN=CN)C[C@H]12 [Imipenem, imipenem]							7.51 Log10 CFU/ml	3.95 Log10 CFU/ml	3.60 Log10 CFU/ml	4.81 Log10 CFU/ml	5.90 Log10 CFU/ml
N#C[C@@H]1CC[C@@H]2CN1C(=O)N2OS(=O)(=O)O [Sodium salt of a compound of Formula (I), sodium salt of sulphuric acid, mono[(1R,2S,5R)-2-cyano-7-oxo-1,6-diazabicyclo[3.2.1]oct-6-yl] ester]	not effective in decreasing the bacterial count	7.51 Log10 CFU/ml	8.87 Log10 CFU/ml	9.36 Log10 CFU/ml	9.20 Log10 CFU/ml	9.20 Log10 CFU/ml					
